Test results: PMC4076210, “Discovery of Novel AKT Inhibitors with Enhanced Anti-Tumor Effects in Combination with the MEK Inhibitor” (PLoS ONE, 2014)
Read-outs that look alike come from different tables or passages of the source.

Experiments:
Experiment in all cases: Kinase panel
Type in all cases: biochemical
PrKX(h) = target: T1, PrKX(h) (Homo sapiens, UniProt P51817)
T1 construct: purchased Millipore KinaseProfiler
T1 sequence (P51817 1-358): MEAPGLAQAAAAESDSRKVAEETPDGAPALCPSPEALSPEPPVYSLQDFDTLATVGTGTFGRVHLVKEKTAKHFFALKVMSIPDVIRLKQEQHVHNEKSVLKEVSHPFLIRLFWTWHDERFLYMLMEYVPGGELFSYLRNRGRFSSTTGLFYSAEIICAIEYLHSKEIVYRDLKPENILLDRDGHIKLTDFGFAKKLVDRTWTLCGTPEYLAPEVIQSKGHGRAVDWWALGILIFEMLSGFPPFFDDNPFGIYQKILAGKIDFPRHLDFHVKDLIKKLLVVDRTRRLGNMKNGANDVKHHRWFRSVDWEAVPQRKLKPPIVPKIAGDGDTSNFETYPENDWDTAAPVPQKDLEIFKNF

Plk3(h) = target: T2, Plk3(h) (Homo sapiens, UniProt Q9H4B4)
T2 construct: purchased Millipore KinaseProfiler

Lck(h) = target: T3, Lck(h) (Homo sapiens, UniProt P06239)
T3 construct: purchased Millipore KinaseProfiler

GSK3α(h) = target: T4, GSK3α(h) (Homo sapiens, UniProt P49840)
T4 construct: purchased Millipore KinaseProfiler

DMPK(h) = target: T5, DMPK(h) (Homo sapiens, UniProt Q09013)
T5 construct: purchased Millipore KinaseProfiler
T5 sequence (Q09013 1-629): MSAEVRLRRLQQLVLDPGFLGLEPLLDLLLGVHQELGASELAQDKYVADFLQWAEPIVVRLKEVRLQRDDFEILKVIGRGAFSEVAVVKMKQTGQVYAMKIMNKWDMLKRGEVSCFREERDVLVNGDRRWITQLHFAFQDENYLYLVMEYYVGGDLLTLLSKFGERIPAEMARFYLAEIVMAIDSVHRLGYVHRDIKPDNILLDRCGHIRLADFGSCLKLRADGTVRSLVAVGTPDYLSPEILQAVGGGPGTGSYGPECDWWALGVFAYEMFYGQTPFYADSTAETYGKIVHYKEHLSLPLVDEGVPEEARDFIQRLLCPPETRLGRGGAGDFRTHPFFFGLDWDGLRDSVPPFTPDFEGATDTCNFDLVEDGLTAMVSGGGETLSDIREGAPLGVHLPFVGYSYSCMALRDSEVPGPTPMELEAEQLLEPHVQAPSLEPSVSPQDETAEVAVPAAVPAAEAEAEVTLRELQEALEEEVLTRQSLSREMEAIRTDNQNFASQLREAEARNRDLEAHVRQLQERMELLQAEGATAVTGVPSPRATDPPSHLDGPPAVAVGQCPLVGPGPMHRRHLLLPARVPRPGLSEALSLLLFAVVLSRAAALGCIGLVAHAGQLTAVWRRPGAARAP

mTOR(h) = target: T6, mTOR(h) (Homo sapiens, UniProt P42345)
T6 construct: purchased Millipore KinaseProfiler

GCK(h) = target: T7, GCK(h) (Homo sapiens, UniProt Q12851)
T7 construct: purchased Millipore KinaseProfiler
T7 sequence (Q12851 1-820): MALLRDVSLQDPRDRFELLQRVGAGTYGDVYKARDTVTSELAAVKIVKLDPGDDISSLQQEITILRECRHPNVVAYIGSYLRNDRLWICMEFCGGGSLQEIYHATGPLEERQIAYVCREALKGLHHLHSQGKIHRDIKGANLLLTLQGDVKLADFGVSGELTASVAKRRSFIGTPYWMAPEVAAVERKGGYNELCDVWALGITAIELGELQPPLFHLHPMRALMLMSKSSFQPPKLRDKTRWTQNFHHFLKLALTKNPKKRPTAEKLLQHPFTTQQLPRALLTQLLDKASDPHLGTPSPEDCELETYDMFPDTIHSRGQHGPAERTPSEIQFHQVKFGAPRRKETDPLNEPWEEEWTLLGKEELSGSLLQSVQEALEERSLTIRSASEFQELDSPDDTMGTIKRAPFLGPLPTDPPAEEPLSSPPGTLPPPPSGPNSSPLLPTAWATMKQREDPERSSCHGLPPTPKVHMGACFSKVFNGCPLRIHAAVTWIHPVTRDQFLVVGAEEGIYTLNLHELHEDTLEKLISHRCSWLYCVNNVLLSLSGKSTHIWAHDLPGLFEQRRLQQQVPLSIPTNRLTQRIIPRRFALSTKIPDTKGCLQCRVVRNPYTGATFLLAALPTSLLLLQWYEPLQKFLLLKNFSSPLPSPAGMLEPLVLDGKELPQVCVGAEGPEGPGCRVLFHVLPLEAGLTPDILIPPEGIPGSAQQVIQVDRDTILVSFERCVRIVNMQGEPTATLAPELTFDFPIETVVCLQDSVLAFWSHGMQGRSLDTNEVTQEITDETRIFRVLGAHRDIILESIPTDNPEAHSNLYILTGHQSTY

LOK(h) = target: T8, LOK(h) (Homo sapiens, UniProt O94804)
T8 construct: purchased Millipore KinaseProfiler

SRPK2(h) = target: T9, SRPK2(h) (Homo sapiens, UniProt P78362)
T9 construct: purchased Millipore KinaseProfiler

MARK1(h) = target: T10, MARK1(h) (Homo sapiens, UniProt Q9P0L2)
T10 construct: purchased Millipore KinaseProfiler

GRK6(h) = target: T11, GRK6(h) (Homo sapiens, UniProt P43250)
T11 construct: purchased Millipore KinaseProfiler

PRK2(h) = target: T12, PRK2(h) (Homo sapiens, UniProt Q16513)
T12 construct: purchased Millipore KinaseProfiler

T11 sequence (P43250 whole entry): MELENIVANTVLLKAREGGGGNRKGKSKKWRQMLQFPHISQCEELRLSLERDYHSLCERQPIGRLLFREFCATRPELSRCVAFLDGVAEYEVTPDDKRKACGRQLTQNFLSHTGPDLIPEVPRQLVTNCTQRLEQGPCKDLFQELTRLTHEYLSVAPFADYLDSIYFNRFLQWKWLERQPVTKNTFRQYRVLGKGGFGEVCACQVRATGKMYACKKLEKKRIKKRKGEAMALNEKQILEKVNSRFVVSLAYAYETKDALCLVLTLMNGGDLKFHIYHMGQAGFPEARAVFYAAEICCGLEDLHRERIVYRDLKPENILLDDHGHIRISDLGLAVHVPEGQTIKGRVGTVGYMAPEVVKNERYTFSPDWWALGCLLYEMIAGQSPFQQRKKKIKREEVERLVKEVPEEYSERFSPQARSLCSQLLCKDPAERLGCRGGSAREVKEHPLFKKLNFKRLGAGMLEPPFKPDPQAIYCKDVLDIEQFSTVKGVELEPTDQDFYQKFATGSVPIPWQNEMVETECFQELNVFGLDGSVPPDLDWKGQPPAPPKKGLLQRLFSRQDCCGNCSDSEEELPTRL
T10 sequence (Q9P0L2 whole entry): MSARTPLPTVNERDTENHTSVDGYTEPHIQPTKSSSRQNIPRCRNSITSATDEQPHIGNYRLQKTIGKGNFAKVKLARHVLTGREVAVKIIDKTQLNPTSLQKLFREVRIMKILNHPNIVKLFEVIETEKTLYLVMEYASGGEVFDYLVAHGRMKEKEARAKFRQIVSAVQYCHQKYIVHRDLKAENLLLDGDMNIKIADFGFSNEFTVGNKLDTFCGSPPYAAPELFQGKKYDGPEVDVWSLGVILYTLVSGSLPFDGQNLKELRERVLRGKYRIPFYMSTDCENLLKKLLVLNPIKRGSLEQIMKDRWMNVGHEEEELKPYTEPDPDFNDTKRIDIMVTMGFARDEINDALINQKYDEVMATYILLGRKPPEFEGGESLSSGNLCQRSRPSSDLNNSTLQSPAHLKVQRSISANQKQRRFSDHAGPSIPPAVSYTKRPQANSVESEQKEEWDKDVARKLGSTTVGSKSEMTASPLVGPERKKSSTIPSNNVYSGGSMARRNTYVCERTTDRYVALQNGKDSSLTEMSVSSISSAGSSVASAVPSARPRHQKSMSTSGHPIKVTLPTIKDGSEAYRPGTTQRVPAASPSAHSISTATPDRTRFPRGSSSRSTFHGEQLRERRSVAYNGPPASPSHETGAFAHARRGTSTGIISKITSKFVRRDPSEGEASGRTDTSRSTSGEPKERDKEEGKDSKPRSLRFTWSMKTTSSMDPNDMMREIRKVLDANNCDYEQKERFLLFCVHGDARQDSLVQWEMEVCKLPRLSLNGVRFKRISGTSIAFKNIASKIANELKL
T8 sequence (O94804 whole entry): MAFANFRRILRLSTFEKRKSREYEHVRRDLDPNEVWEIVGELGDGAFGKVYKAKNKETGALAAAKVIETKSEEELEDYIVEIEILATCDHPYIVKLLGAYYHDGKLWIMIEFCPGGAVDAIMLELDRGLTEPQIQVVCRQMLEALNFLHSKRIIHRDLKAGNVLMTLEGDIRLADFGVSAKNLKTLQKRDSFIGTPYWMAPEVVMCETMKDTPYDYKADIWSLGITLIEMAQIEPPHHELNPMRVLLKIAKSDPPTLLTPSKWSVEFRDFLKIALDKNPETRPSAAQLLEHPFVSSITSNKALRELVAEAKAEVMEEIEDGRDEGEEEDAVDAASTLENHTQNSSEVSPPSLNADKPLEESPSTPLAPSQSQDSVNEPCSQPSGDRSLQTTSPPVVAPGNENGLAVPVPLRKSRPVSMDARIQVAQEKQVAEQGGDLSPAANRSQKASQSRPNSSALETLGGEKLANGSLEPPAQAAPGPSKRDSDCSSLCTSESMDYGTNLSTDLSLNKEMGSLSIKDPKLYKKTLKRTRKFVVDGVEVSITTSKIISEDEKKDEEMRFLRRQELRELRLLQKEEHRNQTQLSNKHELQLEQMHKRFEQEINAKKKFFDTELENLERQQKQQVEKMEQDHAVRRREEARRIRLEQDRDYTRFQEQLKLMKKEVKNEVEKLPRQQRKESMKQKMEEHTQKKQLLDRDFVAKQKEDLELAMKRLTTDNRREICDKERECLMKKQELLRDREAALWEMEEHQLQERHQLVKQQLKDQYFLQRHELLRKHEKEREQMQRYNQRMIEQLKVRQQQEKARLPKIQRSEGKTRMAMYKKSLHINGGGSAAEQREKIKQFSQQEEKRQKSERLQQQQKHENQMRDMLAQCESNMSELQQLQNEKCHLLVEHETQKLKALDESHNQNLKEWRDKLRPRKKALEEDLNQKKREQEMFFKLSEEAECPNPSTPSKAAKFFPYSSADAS
T9 sequence (P78362 whole entry): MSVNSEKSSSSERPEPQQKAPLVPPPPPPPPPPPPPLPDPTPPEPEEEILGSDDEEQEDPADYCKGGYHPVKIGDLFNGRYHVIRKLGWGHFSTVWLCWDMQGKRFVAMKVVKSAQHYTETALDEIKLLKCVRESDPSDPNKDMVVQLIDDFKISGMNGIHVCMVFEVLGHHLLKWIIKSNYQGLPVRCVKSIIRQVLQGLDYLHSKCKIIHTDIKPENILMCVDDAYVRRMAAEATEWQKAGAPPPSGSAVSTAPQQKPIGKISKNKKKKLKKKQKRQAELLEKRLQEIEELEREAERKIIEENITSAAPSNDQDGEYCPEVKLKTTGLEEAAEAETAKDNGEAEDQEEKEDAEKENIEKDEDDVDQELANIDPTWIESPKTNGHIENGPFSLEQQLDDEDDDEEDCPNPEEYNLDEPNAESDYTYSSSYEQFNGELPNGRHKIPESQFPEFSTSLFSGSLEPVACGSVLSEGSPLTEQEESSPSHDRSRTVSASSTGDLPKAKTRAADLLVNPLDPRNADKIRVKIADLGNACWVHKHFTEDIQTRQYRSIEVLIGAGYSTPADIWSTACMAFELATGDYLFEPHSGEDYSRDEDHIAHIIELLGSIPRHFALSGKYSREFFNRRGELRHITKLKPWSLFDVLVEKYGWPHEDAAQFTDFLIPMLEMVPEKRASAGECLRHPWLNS
T4 sequence (P49840 whole entry): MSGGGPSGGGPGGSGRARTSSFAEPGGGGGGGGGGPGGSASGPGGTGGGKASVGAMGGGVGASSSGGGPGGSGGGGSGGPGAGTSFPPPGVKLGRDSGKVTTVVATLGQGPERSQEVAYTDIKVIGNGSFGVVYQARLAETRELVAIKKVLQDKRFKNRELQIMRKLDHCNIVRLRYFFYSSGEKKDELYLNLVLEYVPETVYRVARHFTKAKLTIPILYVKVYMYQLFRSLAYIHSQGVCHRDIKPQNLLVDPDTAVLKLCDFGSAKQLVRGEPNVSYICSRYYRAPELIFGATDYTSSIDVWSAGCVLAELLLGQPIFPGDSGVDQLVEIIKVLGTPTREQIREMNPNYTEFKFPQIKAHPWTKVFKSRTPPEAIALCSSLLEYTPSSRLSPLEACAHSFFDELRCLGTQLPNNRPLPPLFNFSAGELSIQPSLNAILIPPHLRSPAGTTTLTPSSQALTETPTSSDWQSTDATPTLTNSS
T2 sequence (Q9H4B4 whole entry): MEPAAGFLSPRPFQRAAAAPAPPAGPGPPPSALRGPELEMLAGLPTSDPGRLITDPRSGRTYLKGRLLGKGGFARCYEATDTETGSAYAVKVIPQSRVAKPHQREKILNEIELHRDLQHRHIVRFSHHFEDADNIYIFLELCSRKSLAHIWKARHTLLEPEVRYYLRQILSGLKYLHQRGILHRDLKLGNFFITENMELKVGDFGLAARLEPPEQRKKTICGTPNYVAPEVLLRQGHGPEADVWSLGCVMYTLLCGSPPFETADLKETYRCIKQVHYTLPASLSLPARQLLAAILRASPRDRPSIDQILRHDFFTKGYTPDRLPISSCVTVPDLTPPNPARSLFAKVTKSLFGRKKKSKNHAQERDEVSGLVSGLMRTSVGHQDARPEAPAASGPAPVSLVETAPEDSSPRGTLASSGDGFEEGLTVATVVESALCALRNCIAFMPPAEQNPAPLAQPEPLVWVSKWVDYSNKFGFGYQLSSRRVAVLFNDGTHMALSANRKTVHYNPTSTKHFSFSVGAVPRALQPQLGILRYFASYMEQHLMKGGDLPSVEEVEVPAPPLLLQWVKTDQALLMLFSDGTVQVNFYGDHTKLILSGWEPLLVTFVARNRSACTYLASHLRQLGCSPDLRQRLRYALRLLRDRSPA
T3 sequence (P06239 whole entry): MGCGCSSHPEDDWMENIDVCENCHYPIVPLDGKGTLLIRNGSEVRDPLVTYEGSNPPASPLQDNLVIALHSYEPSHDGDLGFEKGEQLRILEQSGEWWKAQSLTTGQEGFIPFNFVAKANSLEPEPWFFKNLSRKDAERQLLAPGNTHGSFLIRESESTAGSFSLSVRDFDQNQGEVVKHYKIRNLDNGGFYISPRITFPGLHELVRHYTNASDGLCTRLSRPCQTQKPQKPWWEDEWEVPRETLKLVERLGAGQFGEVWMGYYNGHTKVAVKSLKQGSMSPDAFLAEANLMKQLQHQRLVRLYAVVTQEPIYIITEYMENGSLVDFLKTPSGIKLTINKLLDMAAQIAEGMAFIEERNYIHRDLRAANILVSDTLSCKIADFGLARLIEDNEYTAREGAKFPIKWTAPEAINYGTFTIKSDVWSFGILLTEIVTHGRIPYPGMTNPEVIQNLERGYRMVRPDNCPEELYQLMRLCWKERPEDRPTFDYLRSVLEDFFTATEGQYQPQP

## Cn1ncc(Cl)c1-c1cc(C(=O)N[C@H](CN)Cc2ccc(F)c(F)c2)oc1Cl [GSK2141795]
PrKX(h); 0.5 µM, read-out: % Inhibition
  inhibition at 0.5 µM: 91%
PrKX(h); 10 µM, read-out: % Inhibition
  inhibition at 10 µM: 98%
Plk3(h); 0.5 µM, read-out: % Inhibition
  inhibition at 0.5 µM: -7%
Plk3(h); 10 µM, read-out: % Inhibition
  inhibition at 10 µM: 59%
Lck(h); 0.5 µM, read-out: % Inhibition
  inhibition at 0.5 µM: -18%
Lck(h); 10 µM, read-out: % Inhibition
  inhibition at 10 µM: 21%
GSK3α(h); 0.5 µM, read-out: % Inhibition
  inhibition at 0.5 µM: -26%
GSK3α(h); 10 µM, read-out: % Inhibition
  inhibition at 10 µM: -19%
DMPK(h); 0.5 µM, read-out: % Inhibition
  inhibition at 0.5 µM: -12%
DMPK(h); 10 µM, read-out: % Inhibition
  inhibition at 10 µM: -5%
mTOR(h); 0.5 µM, read-out: % Inhibition
  inhibition at 0.5 µM: -16%
mTOR(h); 10 µM, read-out: % Inhibition
  inhibition at 10 µM: -4%
GCK(h); 0.5 µM, read-out: % Inhibition
  inhibition at 0.5 µM: -13%
GCK(h); 10 µM, read-out: % Inhibition
  inhibition at 10 µM: 7%
LOK(h); 0.5 µM, read-out: % Inhibition
  inhibition at 0.5 µM: -14%
LOK(h); 10 µM, read-out: % Inhibition
  inhibition at 10 µM: 11%
SRPK2(h); 0.5 µM, read-out: % Inhibition
  inhibition at 0.5 µM: 1%
SRPK2(h); 10 µM, read-out: % Inhibition
  inhibition at 10 µM: 27%
MARK1(h); 0.5 µM, read-out: % Inhibition
  inhibition at 0.5 µM: -11%
MARK1(h); 10 µM, read-out: % Inhibition
  inhibition at 10 µM: 53%
GRK6(h); 0.5 µM, read-out: % Inhibition
  inhibition at 0.5 µM: -16%
GRK6(h); 10 µM, read-out: % Inhibition
  inhibition at 10 µM: 26%
PRK2(h); 0.5 µM, read-out: % Inhibition
  inhibition at 0.5 µM: 81%
PRK2(h); 10 µM, read-out: % Inhibition
  inhibition at 10 µM: 96%

## Cn1ncc(Cl)c1-c1cc(C(=O)N[C@H](CN)Cc2cccc(F)c2)sc1Cl [GSK2110183]
PrKX(h)
  inhibition at 0.5 µM: 70%
  inhibition at 10 µM: 96%
Plk3(h)
  inhibition at 0.5 µM: -3%
  inhibition at 10 µM: 16%
Lck(h)
  inhibition at 0.5 µM: 7%
  inhibition at 10 µM: 35%
GSK3α(h)
  inhibition at 0.5 µM: -2%
  inhibition at 10 µM: -1%
DMPK(h)
  inhibition at 0.5 µM: -8%
  inhibition at 10 µM: 1%
mTOR(h)
  inhibition at 0.5 µM: 17%
  inhibition at 10 µM: -9%
GCK(h)
  inhibition at 0.5 µM: -1%
  inhibition at 10 µM: 10%
LOK(h)
  inhibition at 0.5 µM: -9%
  inhibition at 10 µM: 5%
SRPK2(h)
  inhibition at 0.5 µM: 26%
  inhibition at 10 µM: 37%
MARK1(h)
  inhibition at 0.5 µM: 26%
  inhibition at 10 µM: 88%
GRK6(h)
  inhibition at 0.5 µM: -8%
  inhibition at 10 µM: 10%
PRK2(h)
  inhibition at 0.5 µM: 71%
  inhibition at 10 µM: 99%
